US10377778B2, “Lead and thorium compounds” (Sciencons AS, priority 2017, dated 2019)

Tested on: PSMA-positive xenografts
Experiment: Biodistribution of single targeting solution (purified ^212Pb-ligand) in mice with PSMA-positive xenografts
Type: in vivo
Protocol: Using a ^212Pb/^224Ra solution for reaction with p-SCN-Bn-TCMC-PSMA ligand 1 as described, purified ^212Pb-p-SCN-Bn-TCMC-PSMA ligand 1 was purified using a Sephadex G-10 gel filtration column and about 30 kBq and 300 ng of the purified radioligand product was injected per animal. […] The tumor-to-tissue ratios (Table 4) indicates suitability for radioligand targeting with ^212Pb.

NC(=O)CN1CCN(CC(N)=O)CCN(CC(N)=O)C(Cc2ccc(NC(=S)NCC3CCC(C(=O)NC(Cc4ccc5ccccc5c4)C(=O)NCCCCC(NC(=O)NC(CCC(=O)O)C(=O)O)C(=O)O)CC3)cc2)CN(CC(N)=O)CC1.[212Pb+2] (stereo not drawn) [^212Pb-p-SCN-Bn-TCMC-PSMA ligand 1]
Tumor/Femur ratio (1 h): 30.4
Tumor/blood ratio (1 h): 14.9
Tumor/kidneys ratio (1 h): 0.41
Tumor/muscle ratio (1 h): 42.6
Tumor/Femur ratio (2 h): 39.7
Tumor/blood ratio (2 h): 29.4
Tumor/kidneys ratio (2 h): 0.62
Tumor/muscle ratio (2 h): 72.1
Tumor/Femur ratio (4 h): 24.8
Tumor/blood ratio (4 h): 30.7
Tumor/kidneys ratio (4 h): 1.54
Tumor/muscle ratio (4 h): 61.5
Tumor/Femur ratio (8 h): 19.8
Tumor/blood ratio (8 h): 112.7
Tumor/kidneys ratio (8 h): 3.60
Tumor/muscle ratio (8 h): 366.2
Biodistribution, Bladder (1 h post injection): 36.86 % ID/g
Biodistribution, Bladder (2 h post injection): 6.85 % ID/g
Biodistribution, Bladder (4 h post injection): 3.53 % ID/g
Biodistribution, Bladder (8 h post injection): 0.26 % ID/g
Biodistribution, Blood (1 h post injection): 1.77 % ID/g
Biodistribution, Blood (2 h post injection): 0.54 % ID/g
Biodistribution, Blood (4 h post injection): 0.46 % ID/g
Biodistribution, Blood (8 h post injection): 0.13 % ID/g
Biodistribution, Brain (1 h post injection): 0.61 % ID/g
Biodistribution, Brain (2 h post injection): 0.04 % ID/g
Biodistribution, Brain (4 h post injection): 0.07 % ID/g
Biodistribution, Brain (8 h post injection): 0.02 % ID/g
Biodistribution, Femur (1 h post injection): 0.87 % ID/g
Biodistribution, Femur (2 h post injection): 0.40 % ID/g
Biodistribution, Femur (4 h post injection): 0.57 % ID/g
Biodistribution, Femur (8 h post injection): 0.74 % ID/g
Biodistribution, Heart (1 h post injection): 0.78 % ID/g
Biodistribution, Heart (2 h post injection): 0.20 % ID/g
Biodistribution, Heart (4 h post injection): 0.52 % ID/g
Biodistribution, Heart (8 h post injection): 0.09 % ID/g
Biodistribution, Kidneys (1 h post injection): 63.96 % ID/g
Biodistribution, Kidneys (2 h post injection): 25.41 % ID/g
Biodistribution, Kidneys (4 h post injection): 9.19 % ID/g
Biodistribution, Kidneys (8 h post injection): 4.07 % ID/g
Biodistribution, Large intestine (1 h post injection): 0.25 % ID/g
Biodistribution, Large intestine (2 h post injection): 0.39 % ID/g
Biodistribution, Large intestine (4 h post injection): 0.18 % ID/g
Biodistribution, Large intestine (8 h post injection): 0.17 % ID/g
Biodistribution, Liver (1 h post injection): 2.39 % ID/g
Biodistribution, Liver (2 h post injection): 1.33 % ID/g
Biodistribution, Liver (4 h post injection): 1.55 % ID/g
Biodistribution, Liver (8 h post injection): 1.25 % ID/g
Biodistribution, Lungs (1 h post injection): 1.19 % ID/g
Biodistribution, Lungs (2 h post injection): 0.40 % ID/g
Biodistribution, Lungs (4 h post injection): 0.75 % ID/g
Biodistribution, Lungs (8 h post injection): 0.17 % ID/g
Biodistribution, Muscle (1 h post injection): 0.62 % ID/g
Biodistribution, Muscle (2 h post injection): 0.22 % ID/g
Biodistribution, Muscle (4 h post injection): 0.23 % ID/g
Biodistribution, Muscle (8 h post injection): 0.04 % ID/g
Biodistribution, Prostate (1 h post injection): 13.95 % ID/g
Biodistribution, Prostate (2 h post injection): 3.80 % ID/g
Biodistribution, Prostate (4 h post injection): 1.48 % ID/g
Biodistribution, Prostate (8 h post injection): −0.10 % ID/g
Biodistribution, Salivary gland (1 h post injection): 0.72 % ID/g
Biodistribution, Salivary gland (2 h post injection): 0.32 % ID/g
Biodistribution, Salivary gland (4 h post injection): 0.34 % ID/g
Biodistribution, Salivary gland (8 h post injection): 0.15 % ID/g
Biodistribution, Skin (1 h post injection): 1.70 % ID/g
Biodistribution, Skin (2 h post injection): 0.47 % ID/g
Biodistribution, Skin (4 h post injection): 0.42 % ID/g
Biodistribution, Skin (8 h post injection): 0.23 % ID/g
Biodistribution, Skull (1 h post injection): 0.77 % ID/g
Biodistribution, Skull (2 h post injection): 0.38 % ID/g
Biodistribution, Skull (4 h post injection): 0.37 % ID/g
Biodistribution, Skull (8 h post injection): 0.63 % ID/g
Biodistribution, Small intestine (1 h post injection): 0.34 % ID/g
Biodistribution, Small intestine (2 h post injection): 0.23 % ID/g
Biodistribution, Small intestine (4 h post injection): 0.30 % ID/g
Biodistribution, Small intestine (8 h post injection): 0.08 % ID/g
Biodistribution, Spleen (1 h post injection): 1.24 % ID/g
Biodistribution, Spleen (2 h post injection): 0.44 % ID/g
Biodistribution, Spleen (4 h post injection): 0.54 % ID/g
Biodistribution, Spleen (8 h post injection): 0.36 % ID/g
Biodistribution, Stomach (1 h post injection): 0.16 % ID/g
Biodistribution, Stomach (2 h post injection): 0.22 % ID/g
Biodistribution, Stomach (4 h post injection): 0.10 % ID/g
Biodistribution, Stomach (8 h post injection): 0.09 % ID/g
Biodistribution, Testes (1 h post injection): 4.41 % ID/g
Biodistribution, Testes (2 h post injection): 0.56 % ID/g
Biodistribution, Testes (4 h post injection): 0.38 % ID/g
Biodistribution, Testes (8 h post injection): 0.12 % ID/g
Biodistribution, Tumor (1 h post injection): 26.44 % ID/g
Biodistribution, Tumor (2 h post injection): 15.87 % ID/g
Biodistribution, Tumor (4 h post injection): 14.14 % ID/g
Biodistribution, Tumor (8 h post injection): 14.65 % ID/g
Biodistribution, Urine (1 h post injection): 253.36 % ID/g
Biodistribution, Urine (2 h post injection): 250.85 % ID/g
Biodistribution, Urine (4 h post injection): 32.12 % ID/g
Biodistribution, Urine (8 h post injection): 6.76 % ID/g
